# Data from the pKa sets of Baltruschat and Czodrowski (2020).
# Conditions: acidic group
row,SMILES,pKa
1,O=C(O)[C@@H]1CCC[NH2+]1,1.94
2,CC(C)(/C=C/C(=O)[O-])c1cc([N+](=O)[O-])ccc1O,7.24
3,CC(C)(O)C(=O)O,4.04
4,C[Si](C)(C)CCCC(=O)O,4.89
5,N#Cc1cccc(S(N)(=O)=O)c1,8.84
6,[O-]c1nc(O)nn1-c1ccccc1,12.2
7,NNC(=O)c1cccnc1,11.5
8,C/C(=N/O)c1cc(C)c(C)cc1O,8.2
9,CC1=NS(=O)(=O)c2ncccc2N1,7.58
10,[O-]c1c(O)cccc1O,11.2
11,CC(C)C([NH3+])C(=O)O (configuration not stated),2.41
12,CC(C)(C)CCCC(=O)O,4.88
13,C[n+]1ccc(C(=O)Cc2ccccc2)cc1,9.02
14,O=C1COC(=O)C1Cl (configuration not stated),2.13
15,CCCCNc1cc[nH+]c(S)n1,3.2
16,O=C(O)CCC(=O)c1ccc2ccccc2c1,4.96
17,Cc1cc([O-])ccc1O,11.8
18,CCCCCCCc1c(-c2ccccc2)nn(-c2ccccc2)c1O,8
19,c1ccc(CCNc2ncnc3[nH]ncc23)cc1,4.38
20,Nc1ncc2[nH]cnc2n1,9.93
21,NCc1nc2ccccc2[nH]1,12.8
22,N[C@@H](Cc1nc[nH]c1I)C(=O)[O-],12.4
23,CCCC[C@H]([NH3+])C(=O)O,2.39
24,Cc1cccc(NC=S)c1,11.6
25,SCc1ccccc1,9.43
26,Cc1ccc(C(=O)O)c(Cl)c1,3.27
27,O=C([O-])CC(=O)/C=N/O,8.7
28,O=C1c2ccccc2C(=O)N1O,6.13
29,O=C(O)c1ccc(/C=C/[N+](=O)[O-])cc1,3.94

# Same assay, conditions: basic group
row,SMILES,pKa
1,CC([NH3+])C/C(N)=N/O (configuration not stated),3.75
2,CN1CCC(NNc2ccccc2)CC1,8.7
3,Cn1cccn1,2.48
4,C=CCN1CC[C@]23c4c5ccc(O)c4O[C@H]2[C@@H](O)C=C[C@H]3[C@H]1C5,7.83
5,CN(C)c1ncc(Br)s1,3.66
6,CCOC(=O)c1cnc2ccccc2c1OCC,3.88
7,c1ccc(-c2nnc(-c3ccccc3)o2)cc1,1.96
8,C#CCCCCCN,10.6
9,CCOc1ccc(N)cc1,5.25
10,Nc1cc([N+](=O)[O-])cc2ccccc12,2.24
11,C[C@H]1C[C@@H]2CCN1C2,10.6
12,NNC(=O)c1cccnc1,3.27
13,COC(=O)C(C)(C)c1c[nH]c(CO)n1,6.18
14,CCCn1ccnc1CO,7.04
15,C[NH+](C)CCCNc1ccnc2cc([N+](=O)[O-])ccc12,6.77
16,COc1ccc(CN2CC(O[Si](C)(C)C)C2)cc1,8.17
17,COc1cc(S(C)=O)ccc1-c1cn2cccnc2n1 (configuration not stated),3.7
18,COc1ccccn1,3.34
19,NCCCCCO,10.5
20,CCN(CC)Cc1cc([N+](=O)[O-])c2ccccc2c1[O-],11
21,CCN(CC)CCC(=O)Nc1c(C)cccc1C,8.96
22,CC(C)(C)NCCCCCCNC(C)(C)C,11

row,SMILES,pKa
1,N[C@H]1CCC[C@H](O)C1,10.1
2,c1ccc(C2CCCN2)cc1 (configuration not stated),9.6
3,NCC/C=C/C(=O)[O-],9.95
4,Brc1ccc(Nc2ccccc2)cc1,1.73
5,Cc1ncncc1N,3.15
6,[O-]c1ccnc([S-])n1,12.7
7,[O-]c1c(Cl)c(Cl)cc(Cl)c1CN1CCOCC1,8.23
8,CN(C)C(C)(C)C=O,8.4
9,COC(=O)c1nc2cc(Cl)ccc2[nH]1,0.3
10,Cc1cnc(N)s1,5.71
11,N#CCC(N)c1ccccc1 (configuration not stated),6.7
12,Nc1ncc2[nH]cnc2n1,3.8
13,CN(CCO)CCO,8.51
14,NCc1nc2ccccc2[nH]1,8.02
15,N[C@@H](Cc1nc[nH]c1I)C(=O)[O-],8.62
16,COc1ccc(/C=N/c2ncc3nc[nH]c3n2)cc1,3.86
17,COc1cc2c(cc1OC)NCC2,7.3
18,NCC(=O)NCCc1c[nH]cn1,8.04
19,CC[C@]1(O)C[C@@H](C)N[C@@H]2CCCC[C@H]21,10.3
20,C[NH+](C)CCCNc1c([N+](=O)[O-])cnc2ccccc12,4.43
21,Nc1ccc(S(=O)(=O)Nc2ccc[nH+]c2)cc1,1.59
